Laboratory results from BindingDB's records for doi:10.1021/jm00392a002 (1987).
Non-standard residues stand in square brackets, D forms with d. Residues, ends and D or L forms follow the SMILES beside them. ξ: configuration not given here. Met(O) = CS(=O)CC[C@H](N)C(=O)O; ξA = CC(N)C(=O)O; Sar = CNCC(=O)O

Molecular target: Delta-type opioid receptor (Cavia porcellus)
Assay: Evaluated for the inhibition of [3H]DADLE binding to Opioid receptor delta 1 of guinea pig brain

`COC(=O)CN(C)C(=O)[C@H](Cc1ccccc1)NC(=O)[C@H](CC[S+](C)[O-])NC(=O)[C@H](Cc1ccc(O)cc1)N=C(N)N` (stereo partly specified) gave an IC50 of 150 nM.

`CN(CC(N)=O)C(=O)[C@H](Cc1ccccc1)NC(=O)[C@H](CC[S+](C)[O-])NC(=O)[C@@H](N)Cc1ccc(O)cc1` (stereo partly specified) (H-Y[Met(O)]F[Sar]-NH2) showed an IC50 of 440 nM.

`CN(CC(=O)O)C(=O)[C@H](Cc1ccccc1)NC(=O)[C@H](CC[S+](C)[O-])NC(=O)[C@@H](N)Cc1ccc(O)cc1` (stereo partly specified) (H-Y[Met(O)]F[Sar]-OH) showed an IC50 of 2120 nM.

`COC(=O)CN(C)C(=O)[C@H](Cc1ccccc1)NC(=O)[C@H](CC[S+](C)[O-])NC(=O)[C@@H](N)Cc1ccc(O)cc1` (stereo partly specified) (H-Y[Met(O)]F[Sar]-OMe) gave an IC50 of 510 nM.

With `CC(NC(=O)[C@H](Cc1ccccc1)NC(=O)[C@H](CC[S+](C)[O-])NC(=O)[C@@H](N)Cc1ccc(O)cc1)C(N)=O` (stereo partly specified) (H-Y[Met(O)]F[ξA]-NH2) the IC50 was 900 nM.

Work on `C[C@@H](NC(=O)[C@@H](N)Cc1ccc(O)cc1)C(=O)N[C@@H](Cc1ccccc1)C(=O)NCC(N)=O` (H-Y[dA]FG-NH2) yielded an IC50 of 818 nM.
